The record followed here is PMC9977937, “Molecular insights into the catalytic mechanism of plasticizer degradation by a monoalkyl phthalate hydrolase” (Communications Chemistry, 2023).

For experiment [1], the target named is T1, MehpH (crystallization construct) (Gordonia sp. P8219, UniProt Q2MHH5, D259N).
T1 construct: N-terminal 23 residues deleted (core 24-152 and 225-311, lid 153-224), His-tagged, pET30a, E. coli BL21(DE3); four molecules per asymmetric unit
Kind of experiment: X-ray crystallography, […] Å. The format is binding. The conditions noted are these: pH 6.2, 16 °C.

The target in another experiment is T2, MehpH (Gordonia sp. P8219, UniProt Q2MHH5).
T2 construct: synthetic gene in pET30a, His-tagged, E. coli BL21(DE3)
T2 sequence (Q2MHH5 1-311): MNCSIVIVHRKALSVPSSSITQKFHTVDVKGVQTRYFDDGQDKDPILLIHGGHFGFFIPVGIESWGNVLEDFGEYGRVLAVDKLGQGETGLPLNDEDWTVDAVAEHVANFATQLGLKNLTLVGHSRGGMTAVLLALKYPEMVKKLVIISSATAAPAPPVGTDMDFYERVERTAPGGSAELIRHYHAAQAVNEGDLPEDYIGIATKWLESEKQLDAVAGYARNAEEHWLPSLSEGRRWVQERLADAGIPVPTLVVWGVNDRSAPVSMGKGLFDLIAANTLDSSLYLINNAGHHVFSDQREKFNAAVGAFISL
The experiment in a line: HPLC of MBP and PA at […] nm. The class given is biochemical. The conditions noted are these: 1.0 mM MBP, 1.0 µM enzyme, 10% DMSO.

T1 sequence (Q2MHH5 entry or part of it D259N): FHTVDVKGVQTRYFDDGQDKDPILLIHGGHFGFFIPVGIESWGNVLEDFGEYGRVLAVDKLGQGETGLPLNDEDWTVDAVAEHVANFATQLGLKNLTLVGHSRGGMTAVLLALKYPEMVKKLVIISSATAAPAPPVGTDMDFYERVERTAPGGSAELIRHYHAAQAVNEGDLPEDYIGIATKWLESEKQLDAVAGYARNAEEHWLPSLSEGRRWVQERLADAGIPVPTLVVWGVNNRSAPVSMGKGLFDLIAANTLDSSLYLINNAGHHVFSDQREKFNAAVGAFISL

Take `CCCCO` [butanol]: the “X-ray crystallography, 2.8 Å” value in experiment [1] (non-covalent, in penetrating tunnel next to active site, one of four molecules, crystals with MBP) is recorded as “we discovered the electron density of butanol in the penetrating tunnel”. As to `CCCCOC(=O)c1ccccc1C(=O)O` [MBP, monobutyl phthalate], the “HPLC of MBP and PA at 254 nm” value at MehpH is “Hydrolytic activities of MehpH and its variants using MBP as substrate”. Turning to `O=C(O)c1ccccc1C(=O)O` [PA, phthalic acid], the “X-ray crystallography, 2.8 Å” value in experiment [1] (covalent ester with Ser125 (acyl-enzyme intermediate), crystals of the D259N mutant with MBP) is on record as “The shape of the electron density is consistent with that of PA”.
